Data as given in US5914325A, “Steroids with radical-attracting aromatic substituents, process for the production thereof and pharmaceutical compounds containing the said substances” (Jenapharm GmbH, priority 1993, dated 1999).

Assays:
lipid peroxidation = assay: Inhibition of lipid peroxidation in vitro, thiobarbituric acid test (synaptosomal membrane fraction, Fenton's reagent); settings: read-out: Lipid peroxidation inhibition [IC50], iron(II) chloride/hydrogen peroxide, 30 min at 37° C.
LDL oxidation = assay: Inhibition of LDL oxidation in vitro, method of Esterbauer et al (1988), CuSO4, 234 nm; type: biochemical; settings: 1 μM, LDL isolated from human whole blood, room temperature, at least 8 h
Description: The measurement of in vitro inhibition of LDL oxidation was performed in accordance with Esterbauer et al (1988): Effect of peroxidative conditions on human plasma low density lipoproteins. In: Eicosanoids, lipid peroxidation and cancer (ed. Nigam et al), pages 203-214, Springer-Verlag,Berlin, Heidelberg, New York.
The values listed in Table 2 for inhibition of LDL oxidation represent examples for cardiovascular activities.
Testing of the substances for inhibitory action with regard to LDL oxidation, by the method of Esterbauer et al (1988), was carried out as follows:
The reaction mixture is incubated at room temperature over a period of at least 8 h and followed spectral photometrically (the absorption maximum of the oxidized LDL is at 234 nm). In accordance with the extinction changes, recorded at the measurement wavelength of 234 nm, in the presence or absence of test substances or in comparison of the native and the oxidized LDL, definitive statements on the influence on the oxidized LDL by the action of the test substance.
Dosage-action analysis of the test substances.

Row | Compound | IC50 (lipid peroxidation) | LDL oxidation inhibition (prolongation of lag phase in min) (LDL oxidation)
1 | COc1ccc2c(c1)CC[C@@H]1[C@@H]2CC[C@@]2(C)[C@H]1CC[C@@]2(O)Cc1cc(C)c(O)c(C)c1 | 2.34 µM | –
2 | Cc1cc(C2=C[C@@H]3[C@H](CC[C@]4(C)[C@@H](O)CC[C@@H]34)c3ccc(O)cc32)cc(C)c1O [6-2',6'-Dimethyl-4'-hydroxyphenylestra-1,3,5(10),6-tetraene-3,17β-diol] | 0.95 µM | 180 min
3 | CN(C)c1ccc(C2=C[C@@H]3[C@H](CC[C@]4(C)[C@@H](O)CC[C@@H]34)c3ccc(O)cc32)cc1 [6-4'-N,N-Dimethylaminophenylestra-1,3,5(10),6-tetraene-3,17β-diol] | 2.75 µM | –
4 | C[C@]12CC[C@H]3[C@@H](C[C@@H](c4ccc(O)cc4)C4=CC(=O)CC[C@@]43C)[C@@H]1CC[C@@H]2O [6β-4'-Hydroxyphenyl-17β-hydroxyandrost-4-ene-3-one] | 60 µM | –
5 | CN(C)c1ccc(C2=CC[C@H]3[C@@H]4CCc5cc(O)ccc5[C@H]4CC[C@]23C)cc1 [17-4'-N,N-Dimethylaminophenylestra-1,3,5(10),16-tetraene-3-ol] | 4.5 µM | –
6 | COc1ccc2c(c1)CCC1C2CCC2(C)C1CCC2(O)C[Se]c1c(C(C)(C)C)cc(O)cc1C(C)(C)C (stereo not drawn) [17α2',6'-Di-tert.-butyl-4'-hydroxyphenylselenomethyl-3-methoxyestra-1,3,5(10)-triene-17-ol] | 4.97 µM | –
7 | COc1ccc2c(c1)CCC1C2CCC2(C)C1CCC2(O)Cc1c(C(C)(C)C)cc(O)cc1C(C)(C)C (stereo not drawn) [17α-2',6'-Di-tert.-butyl-4'-hydroxyphenylmethyl-3-methoxyestra-1,3,5(10)-triene-17-ol] | 12.6 µM | –
8 | Cc1cc(O)cc(C)c1CC1(O)CCC2C3CCC4=CC(=O)CCC4C3CCC21C (stereo not drawn) [17α-2',6'-Dimethyl-4'-hydroxyphenylmethyl-17-hydroxyestr-4-ene-3-one] | 1.92 µM | –
9 | COc1ccc2c(c1)CCC1C2CCC2(C)C1CCC2(O)C[Se]c1c(C)cc(O)cc1C (stereo not drawn) [17α-2',6'-Dimethyl-4'-hydroxyphenylselenomethyl-3-methoxyestra-1,3,5(10)-triene-17-ol] | 1.97 µM | –
10 | C[C@]12CC[C@H]3[C@@H](CCC4=CC(=O)CC[C@@H]43)[C@@H]1CC[C@@]2(O)COc1ccc(O)cc1 [17α-4'-Hydroxyphenoxymethyl-17-hydroxyestr-4-ene-3-one] | 10.1 µM | –
11 | COC1(OC)CCC2=C(CC[C@@H]3[C@@H]2CC[C@@]2(C)[C@H]3CC[C@@]2(O)CSc2ccc(O)cc2)C1 [17α-4'-Hydroxyphenylmercaptomethyl-3,3-dimethoxyestr-5(10)-ene-17-ol] | 1.46 µM | –
12 | COc1ccc2c(c1)CC[C@@H]1[C@@H]2CC[C@@]2(C)[C@H]1CC[C@@]2(O)CSc1ccc(O)cc1 [17α-4'-Hydroxyphenylmercaptomethyl-3-methoxyestra-1,3,5(10)-triene-17-ol] | 4.32 µM | –
13 | CC1CC(=O)CC2CCC3C(CCC4(C)C3CCC4(O)CSc3ccc(O)cc3)C12C (stereo not drawn) [17α-4'-Hydroxyphenylmercaptomethyl-17-hydroxy-1α-methyl-5α-androstan-3-one] | 3.82 µM | –
14 | C[C@]12CCC(=O)C[C@@H]1CC[C@@H]1[C@@H]2CC[C@@]2(C)[C@H]1CC[C@@]2(O)CSc1ccc(O)cc1 [17α-4'-Hydroxyphenylmercaptomethyl-17-hydroxy-5α-androstan-3-one] | 4.75 µM | –
15 | C[C@]12CCC(=O)C=C1CC[C@@H]1[C@@H]2CC[C@@]2(C)[C@H]1CC[C@@]2(O)CSc1ccc(O)cc1 [17α-4'-Hydroxyphenylmercaptomethyl-17-hydroxyandrost-4-ene-3-one] | 10.9 µM | –
16 | C[C@]12CC[C@H]3[C@@H](CCC4=CC(=O)CC[C@@H]43)[C@@H]1CC[C@@]2(O)CSc1ccc(O)cc1 [17α-4'-Hydroxyphenylmercaptomethyl-17-hydroxyestr-4-ene-3-one] | 8.6 µM | –
17 | C[C@]12CC=C3c4ccc(O)cc4CC[C@H]3[C@@H]1CC[C@@]2(O)CSc1ccc(O)cc1 [17α-4'-Hydroxyphenylmercaptomethylestra-1,3,5(10),9(11)-tetraene-3,17-diol] | 0.44 µM | 270 min

Row | Compound | IC50 (lipid peroxidation) | LDL oxidation inhibition (prolongation of lag phase in min) (LDL oxidation)
18 | C[C@]12CC[C@@H]3c4ccc(O)cc4CC[C@H]3[C@@H]1CC[C@@]2(O)CSc1ccc(O)cc1 [17α-4'-Hydroxyphenylmercaptomethylestra-1,3,5(10)-triene-3,17-diol] | 2.2 µM | 120 min
19 | COc1ccc2c(c1)CC[C@@H]1[C@@H]2CC[C@@]2(C)[C@H]1CC[C@@]2(O)Cc1ccc(O)cc1 [17α-4'-Hydroxyphenylmethyl-3-methoxyestra-1,3,5(10)-triene-17-ol] | 2.64 µM | –
20 | C[C@]12CC[C@H]3[C@@H](CCC4=CC(=O)CC[C@@H]43)[C@@H]1CC[C@@]2(O)Cc1ccc(O)cc1 [17α-4'-Hydroxyphenylmethyl-17-hydroxyestr-4-ene-3-one] | 50 µM | –
21 | C[C@]12CC=C3c4ccc(O)cc4CC[C@H]3[C@@H]1CC[C@@]2(O)Cc1ccc(O)cc1 [17α-4'-Hydroxyphenylmethylestra-1,3,5(10),9(11)-tetraene-3,17-diol] | 0.32 µM | 230 min
22 | C[C@]12CC[C@@H]3c4ccc(O)cc4CC[C@H]3[C@@H]1CC[C@@]2(O)Cc1ccc(O)cc1 [17α-4'-Hydroxyphenylmethylestra-1,3,5(10)-triene-3,17-diol] | 4.03 µM | 125 min
23 | CN(C)c1ccc([C@]2(O)CC[C@H]3[C@@H]4CCc5cc(O)ccc5[C@H]4CC[C@@]32C)cc1 [17α-4'-N,N-Dimethylaminophenylestra-1,3,5(10)-triene-3,17-diol] | 0.95 µM | 170 min
24 | COc1ccc2c(c1)CC[C@@H]1[C@@H]2CC[C@@]2(C)[C@H]1CC[C@@]2(O)Cc1ccc(N(C)C)cc1 [17α-4'-N,N-Dimethylaminophenylmethyl-3-methoxyestra-1,3,5(10)-triene-17-ol] | 1.64 µM | 195 min
25 | CN(C)c1ccc(C[C@]2(O)CC[C@H]3[C@@H]4CCC5=CC(=O)CC[C@@H]5[C@H]4CC[C@@]32C)cc1 [17α-4'-N,N-Dimethylaminophenylmethyl-17-hydroxyestr-4-ene-3-one] | > 10 µM | –
26 | CN(C)c1ccc(C[C@]2(O)CC[C@H]3[C@@H]4CCc5cc(O)ccc5C4=CC[C@@]32C)cc1 [17α-4'-N,N-Dimethylaminophenylmethylestra-1,3,5(10),9(11)-tetraene-3,17-diol] | 2.1 µM | –
27 | CN(C)c1ccc(C[C@]2(O)CC[C@H]3[C@@H]4CCc5cc(O)ccc5[C@H]4CC[C@@]32C)cc1 [17α-4'-N,N-Dimethylaminophenylmethylestra-1,3,5(10)-triene-3,17-diol] | 3.53 µM | –
28 | COc1ccc2c(c1)CC[C@@H]1[C@@H]2CC[C@@]2(C)[C@H]1CC[C@@]2(O)C[Se]c1ccc(N(C)C)cc1 [17α-4'-N,N-Dimethylaminophenylselenomethyl-3-methoxyestra-1,3,5(10)-triene-17-ol] | 1.33 µM | –
29 | COC1(OC)CCC2=C(CC[C@@H]3[C@@H]2CC[C@@]2(C)[C@H]3CC[C@@]2(O)Cc2ccc(N(C)C)cc2)C1 [17α-4'-N,N-Dimethylphenylmethyl-3,3-dimethoxyestr-5(10)-ene-17-ol] | 5.5 µM | –
30 | C[C@]12CC[C@@H]3c4ccc(O)cc4CC[C@H]3[C@@H]1CC[C@@H]2O [17β-Estradiol, reference compound] | 12.4 µM | 40 min
31 | C[C@]12CC[C@@H]3c4ccc(O)cc4CC[C@H]3[C@@H]1C[C@@H](O)[C@@H]2O [Estriol, reference compound] | 22.5 µM | 20 min
32 | Cc1c(C)c2c(c(C)c1O)CCC(C)(CN1CCN(c3cc(N4CCCC4)nc(N4CCCC4)n3)CC1)O2 (stereo not drawn) [Example U-78517F, reference compound] | – | 20 min
33 | Vitamin E [reference compound] | 132 µM | –
